Measured values: PMC7662280 (Molecules, 2020)
Where “and” joins values, the source holds several entries; their conditions need not be identical. Equal values may be shown once. Read-outs that look alike come from different tables or passages of the source.

Tests used:
[1] = target: T1, soybean lipoxygenase (isozyme LOX-1) (Glycine max, UniProt P08170); conditions: previously published, cited from earlier work; for IC50: read-out: LOX IC50 (μM) ± SEM
T1 construct: purchased Sigma Chemical, Co. (St. Louis, MO, USA)
T1 sequence (P08170 1-839): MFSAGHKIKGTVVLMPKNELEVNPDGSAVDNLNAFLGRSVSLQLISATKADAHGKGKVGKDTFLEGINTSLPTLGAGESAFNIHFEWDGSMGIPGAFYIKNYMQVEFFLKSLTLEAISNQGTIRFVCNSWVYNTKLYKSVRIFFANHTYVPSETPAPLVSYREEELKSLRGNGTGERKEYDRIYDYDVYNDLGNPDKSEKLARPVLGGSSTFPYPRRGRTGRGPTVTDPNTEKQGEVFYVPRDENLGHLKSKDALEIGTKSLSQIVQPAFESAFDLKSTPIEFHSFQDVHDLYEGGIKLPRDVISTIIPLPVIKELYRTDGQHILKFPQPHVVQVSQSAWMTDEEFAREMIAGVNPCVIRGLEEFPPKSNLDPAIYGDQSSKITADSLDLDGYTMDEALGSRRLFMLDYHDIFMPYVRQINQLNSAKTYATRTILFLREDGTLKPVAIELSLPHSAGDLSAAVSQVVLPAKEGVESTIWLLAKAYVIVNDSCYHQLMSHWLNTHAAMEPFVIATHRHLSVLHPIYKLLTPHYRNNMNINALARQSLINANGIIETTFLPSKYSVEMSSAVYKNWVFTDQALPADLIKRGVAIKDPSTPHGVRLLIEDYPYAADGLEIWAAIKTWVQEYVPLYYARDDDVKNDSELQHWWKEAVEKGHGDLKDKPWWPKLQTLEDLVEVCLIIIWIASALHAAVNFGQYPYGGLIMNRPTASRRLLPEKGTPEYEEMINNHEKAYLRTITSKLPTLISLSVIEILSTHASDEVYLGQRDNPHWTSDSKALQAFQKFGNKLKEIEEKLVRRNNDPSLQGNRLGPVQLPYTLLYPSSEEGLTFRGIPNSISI

[2] = Inhibition of linoleic acid peroxidation induced by AAPH; conditions: anti-lipid peroxidation of linoleic acid, 100 μM
[3] = Experimental lipophilicity as RM values by RPTLC; assay type: physicochemical; conditions: silica gel impregnated with liquid paraffin, methanol/water 77/23, 24 °C
[4] = target: T1, soybean lipoxygenase (isozyme LOX-1); assay: Soybean lipoxygenase inhibition study; assay type: biochemical; conditions: for inhibition at 100 µM: read-out: LOX (% Inhibition at 100 μM) ± SEM, soybean lipoxygenase, 100 μM
eel AChE = target: T2, eel AChE (Electrophorus electricus, UniProt O42275); assay: biochemical; conditions: for inhibition at 100 µM: n.a. = no activity under the experimental conditions, read-out: AChE (% Inhibition at 100 μM) ± SEM; for IC50: acetylthiocholine substrate, read-out: AChE IC50 (μM) ± SEM
T2 construct: purchased Sigma-Aldrich Type VI-S
T2 sequence (O42275 24-633): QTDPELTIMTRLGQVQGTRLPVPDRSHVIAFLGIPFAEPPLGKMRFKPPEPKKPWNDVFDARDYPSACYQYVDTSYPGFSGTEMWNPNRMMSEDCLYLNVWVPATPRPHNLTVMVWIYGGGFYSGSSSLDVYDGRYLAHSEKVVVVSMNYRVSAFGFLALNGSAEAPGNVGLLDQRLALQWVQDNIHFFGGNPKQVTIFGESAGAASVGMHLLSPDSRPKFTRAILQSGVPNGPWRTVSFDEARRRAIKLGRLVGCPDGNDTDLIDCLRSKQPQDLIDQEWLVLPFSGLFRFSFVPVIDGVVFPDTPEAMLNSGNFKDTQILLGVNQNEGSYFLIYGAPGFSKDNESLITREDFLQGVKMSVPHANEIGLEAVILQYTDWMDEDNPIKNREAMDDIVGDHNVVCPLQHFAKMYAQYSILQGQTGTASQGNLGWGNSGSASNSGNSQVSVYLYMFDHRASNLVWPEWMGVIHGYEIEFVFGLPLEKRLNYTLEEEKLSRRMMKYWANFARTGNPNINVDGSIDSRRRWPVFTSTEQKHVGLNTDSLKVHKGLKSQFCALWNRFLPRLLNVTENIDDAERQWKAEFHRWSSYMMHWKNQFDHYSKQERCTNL

bovine COX-2 = target: T3, bovine COX-2 (Bos taurus, UniProt O62698); assay: biochemical; assay type: biochemical
T3 sequence (O62698 18-604): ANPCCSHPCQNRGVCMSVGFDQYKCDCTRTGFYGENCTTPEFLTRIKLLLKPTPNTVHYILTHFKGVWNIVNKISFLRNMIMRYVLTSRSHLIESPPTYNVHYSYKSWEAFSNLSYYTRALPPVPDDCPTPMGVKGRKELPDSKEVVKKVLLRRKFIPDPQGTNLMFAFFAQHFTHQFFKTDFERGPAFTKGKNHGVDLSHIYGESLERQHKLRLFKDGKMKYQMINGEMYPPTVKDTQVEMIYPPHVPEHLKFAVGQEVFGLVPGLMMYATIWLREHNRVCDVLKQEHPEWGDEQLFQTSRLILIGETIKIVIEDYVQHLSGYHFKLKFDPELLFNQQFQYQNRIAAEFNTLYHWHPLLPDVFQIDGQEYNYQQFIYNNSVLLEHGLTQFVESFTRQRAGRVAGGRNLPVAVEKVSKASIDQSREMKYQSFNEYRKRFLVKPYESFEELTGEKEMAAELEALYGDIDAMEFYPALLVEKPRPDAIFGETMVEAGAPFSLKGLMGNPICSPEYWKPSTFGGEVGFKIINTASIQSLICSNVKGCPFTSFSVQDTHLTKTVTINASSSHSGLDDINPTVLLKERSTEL

[5] = soybean lipoxygenase, sodium linoleate substrate, read-out: LOX IC50 (μM) ± SEM

Molecule | AAPH Inhibition (%, at 100 μΜ) [2] [%] | RM ± S.D. [3] | IC50 [4, 5] [µM] | inhibition at 100 µM (eel AChE) [%] | also measured
O=C1/C(=C/c2cccc3ccccc23)CNC/C1=C\c1cccc2ccccc12 [1a, (3E,5E)-3,5-bis(naphthalen-1-ylmethylene)piperidin-4-one] | – | – | – | – | IC50 [1]: 37 µM
O=C1/C(=C/c2cccs2)CNC/C1=C\c1cccs1 [1b, (3E,5E)-3,5-bis(thiophen-2-ylmethylene)piperidin-4-one] | – | – | – | – | IC50 [1]: 330 µM
O=C1/C(=C/c2c[nH]c3ccccc23)CNC/C1=C\c1c[nH]c2ccccc12 [1c, (3E,5E)-3,5-bis((1H-indol-3-yl)methylene)piperidin-4-one] | – | – | – | – | IC50 [1]: 380 µM
O=C1/C(=C/c2ccc3[nH]ccc3c2)CNC/C1=C\c1ccc2[nH]ccc2c1 [1d, (3E,5E)-3,5-bis((1H-indol-5-yl)methylene)piperidin-4-one] | – | – | – | – | IC50 [1]: 410 µM
O=C1/C(=C/c2ccccc2)CNC/C1=C\c1ccccc1 [1g, (3E,5E)-3,5-dibenzylidenepiperidin-4-one] | – | – | – | – | LOX (% Inhibition at 100 μM) ± SEM [1]: 8% ± 0.2
O=C1/C(=C/c2ccc(F)cc2)CNC/C1=C\c1ccc(F)cc1 [1j, (3E,5E)-3,5-bis(4-fluorobenzylidene)piperidin-4-one] | 36.2 ± 1.8 | – | – | – | –
O=C1/C(=C/c2cccc3ccccc23)CC/C1=C\c1cccc2ccccc12 [1k, (2E,5E)-2,5-bis(naphthalen-1-ylmethylene)cyclopentanone] | 100 ± 2.2 | 0.872 ± 0.039 | 14 | 36 | –
O=C1/C(=C/c2ccccc2)COC/C1=C\c1ccccc1 [1l, (3E,5E)-3,5-dibenzylidenedihydro-2H-pyran-4(3H)-one] | 42 ± 1.5 | – | – | 25 | inhibition at 100 µM [4]: < 10%
O=C1/C(=C/c2cccc3ccccc23)COC/C1=C\c1cccc2ccccc12 [1m, (3E,5E)-3,5-bis(naphthalen-1-ylmethylene)dihydro-2H-pyran-4(3H)-one] | 100 ± 2.8 | 0.577 ± 0.027 | 50.5 | 32 | –
O=C1/C(=C/c2cccc3ccccc23)CSC/C1=C\c1cccc2ccccc12 [1n, (3Z,5Z)-3,5-bis(naphthalen-1-ylmethylene)dihydro-2H-thiopyran-4(3H)-one] | 100 ± 2.5 | 0.131 ± 0.142 | 57.5 | 18 | –
S=C1/C(=C/c2ccccc2)CNC/C1=C\c1ccccc1 [1o, (3E,5E)-3,5-dibenzylidenepiperidine-4-thione] | 8 ± 0.01 | −0.848 ± 0.19 | 10 | – | inhibition at 100 µM [4]: < 10%
S=C1/C(=C/c2cccc3ccccc23)CNC/C1=C\c1cccc2ccccc12 [1p, (3E,5E)-3,5-bis(naphthalen-1-ylmethylene)piperidine-4-thione] | 100 ± 3.3 | −0.679 ± 0.035 | 35 | 26.6 | –
O=C1/C(=C/c2cc3ccccc3o2)CNC/C1=C\c1cc2ccccc2o1 [1q, (3E,5E)-3,5-bis(benzofuran-2-ylmethylene)piperidin-4-one] | 13 ± 0.2 | −0.019 ± 0.143 | – | 16.5 | inhibition at 100 µM [4]: 3%
O=C(O)/C=C/c1ccccc1 [2a] | 78 ±1.6 | −0.485 ± 0.044 | – | 4.6 | –
O=C(O)/C=C/c1cccc2ccccc12 [2b] | 78 ± 0.7 | −0.576 ± 0.077 | – | – | IC50 [4]: 27.5 µM
O=C(O)/C=C/c1ccc(O)c(O)c1 [2c, caffeic acid] | 80 ± 2.2 | – | – | – | COX-2 (% Inhibition at 100 μM) ± SEM (bovine COX-2; bovine COX-2, 100 μM, n.a. = no activity under the experimental conditions): presented anti-COX-2 activity; IC50 (bovine COX-2; bovine COX-2, read-out: COX-2 IC50 (μM) ± SEM): 57.5 µM
O=C1/C(=C/c2cccc3ccccc23)CN(C(=O)C=Cc2ccccc2)C/C1=C\c1cccc2ccccc12 [3a, (3E,5E)-1-cinnamoyl-3,5-bis(naphthalen-1-ylmethylene)piperidin-4-one] | 91 ± 1.9 | 0.599 ± 0.024 | 50 | – | IC50 (eel AChE): 85 µM
O=C1/C(=C/c2ccccc2)CN(C(=O)/C=C/c2cccc3ccccc23)C/C1=C\c1ccccc1 [3b, (3E,5E)-3,5-dibenzylidene-1-((E)-3-(naphthalen-1-yl)acryloyl)piperidin-4-one] | 90 ± 2.8 | 0.509 ± 0.062 | 55 | 17 | –
O=C1/C(=C/c2cccc3ccccc23)CN(C(=O)/C=C/c2cccc3ccccc23)C/C1=C\c1cccc2ccccc12 [3c, (3E,5E)-1-((E)-3-(naphthalen-1-yl)acryloyl)-3,5-bis(naphthalen-1-ylmethylene)piperidin-4-one] | 88 ± 2.0 | −0.658 and −0.658 ± 0.061 | 37.5 | 29 | –
O=C1/C(=C/c2ccc(F)cc2)CN(C(=O)C=Cc2ccccc2)C/C1=C\c1ccc(F)cc1 [3d, (3E,5E)-1-cinnamoyl-3,5-bis(4-fluorobenzylidene)piperidin-4-one] | 84 ± 1.7 | 0.237 ± 0.06 | 63.5 | 31 | –
O=C1/C(=C/c2cccs2)CN(C(=O)/C=C/c2cccc3ccccc23)C/C1=C\c1cccs1 [3e, (3E,5E)-1-((E)-3-(naphthalen-1-yl)acryloyl)-3,5-bis(thiophen-2-ylmethylene)piperidin-4-one] | 91 ± 2.5 | 0.514 ± 0.039 | 52 | – | inhibition at 100 µM (bovine COX-2; bovine COX-2, 100 μM, n.a. = no activity under the experimental conditions, read-out: COX-2 (% Inhibition at 100 μM) ± SEM): 19%; IC50 (eel AChE): 70 µM
O=C1/C(=C/c2ccc(F)cc2)CN(C(=O)/C=C/c2cccc3ccccc23)C/C1=C\c1ccc(F)cc1 [3f, (3E,5E)-3,5-bis(4-fluorobenzylidene)-1-((E)-3-(naphthalen-1-yl)acryloyl)piperidin-4-one] | 90 ± 2.4 | 0.564 ± 0.045 | 55 | 24 | –
O=C1/C(=C/c2ccccc2)CN(C(=O)C=Cc2ccccc2)C/C1=C\c1ccccc1 [3g, (3E,5E)-3,5-dibenzylidene-1-cinnamoylpiperidin-4-one] | 53 ± 1.6 | 0.235 ± 0.039 | – | – | IC50 [4]: 82 µM; IC50 (eel AChE): 100 µM
O=C1/C(=C/c2cccc3ccccc23)CN(C(=O)/C=C/c2ccc(O)c(O)c2)C/C1=C\c1cccc2ccccc12 [3h, (3E,5E)-1-((E)-3-(3,4-dihydroxyphenyl)acryloyl)-3,5-bis(naphthalen-1-ylmethylene)piperidin-4-one] | 93 ± 2.2 | −0.657 and −0.657 ± 0.013 | 34 | 14 to 34 | –
COc1cc(/C=C/C(=O)CC(=O)/C=C/c2ccc(O)c(OC)c2)ccc1O [Curcumin, reference compound] | – | 0.175 ± 0.029 | – | – | inhibition at 100 µM [4]: 38%
Cc1c(C)c2c(c(C)c1O)CCC(C)(C(=O)O)O2 (stereo not shown) [Trolox, reference compound] | 92 ± 2.1 | – | – | – | –
(3E,5E)-3,5-bis((1H-imidazol-2-yl)methylene)piperidin-4-one [1f] | – | – | – | – | LOX (% Inhibition at 100 μM) ± SEM [1]: 36% ± 0.9
